Measurements: the Deep4Chem optical property database

Assay: solvent given as SMILES

Work on CON(OC)c1cc2c3cc(-c4c(C)cc(C)cc4C)cc4c5cc(-c6c(C)cc(C)cc6C)cc6c7cc(B(c8c(C)cc(C)cc8C)c8c(C)cc(C)cc8C)cc8c9cc(-c%10c(C)cc(C)cc%10C)cc%10c%11cc(-c%12c(C)cc(C)cc%12C)cc%12c(c1)c2c1c(c43)c(c65)c(c78)c(c9%10)c1c%11%12 yielded an absorption maximum (in C1CCOC1) of 452 nm, an absorption maximum (in CC(C)=O) of 445 nm and an absorption maximum (in CCCCCC) of 453 nm. It also gave an absorption maximum (in Cc1ccccc1) of 461 nm, an absorption maximum (in ClC(Cl)Cl) of 449 nm and an absorption maximum (in ClCCl) of 450 nm.
For C[C@]12SC(=O)C=C1c1nc(-c3ccccc3)[nH]c1C1=CC(=O)S[C@@]12C, the absorption maximum (in CC#N) was 460 nm.
With CSc1nccc(/C=C/c2ccc(N(c3ccccc3)c3ccc(/C=C/c4ccnc(SC)n4)cc3)cc2)n1 the absorption maximum (in ClCCl) was 430 nm.
CCCCN(CCCC)c1ccc(C#Cc2cc(C#Cc3ccc(C#N)cc3)c(C#Cc3ccc(C#N)cc3)cc2C#Cc2ccc(N(CCCC)CCCC)cc2)cc1 gave an absorption maximum (in ClCCl) of 416 nm.
With CC(C)(C)c1ccc2c(c1)c1cc(C(C)(C)C)ccc1n2-c1ccc(N(c2ccc(-c3ccc4c(c3)C(C)(C)c3cc(-c5ccc(N(c6ccc(-n7c8ccc(C(C)(C)C)cc8c8cc(C(C)(C)C)ccc87)cc6)c6ccc(-n7c8ccc(C(C)(C)C)cc8c8cc(C(C)(C)C)ccc87)cc6)cc5)ccc3-4)cc2)c2ccc(-n3c4ccc(C(C)(C)C)cc4c4cc(C(C)(C)C)ccc43)cc2)cc1 the absorption maximum (in ClCCl) was 373 nm.
In the case of N#Cc1nc2c3ccc(-n4c5ccccc5c5ccccc54)cc3c3cc(-n4c5ccccc5c5ccccc54)ccc3c2nc1C#N, the absorption maximum (in Cc1ccccc1) is reported as 442 nm.
Work on Clc1ccc2nc3cc4ccccc4cc3c(-c3ccccc3)c2c1 yielded an absorption maximum (in ClCCl) of 402 nm.
For CN1/C(=C/C=C(/C=C/C2=[N+](C)c3ccccc3C2(C)C)c2ccc(C(F)(F)F)cc2)C(C)(C)c2ccccc21, the absorption maximum (in CCO) was 637 nm, the absorption maximum (in CO) was 634 nm and the absorption maximum (in CS(C)=O) was 643 nm. For the same compound, the absorption maximum (in O) was 632 nm.
N#Cc1ccc(C=C(c2ccccc2)c2ccccc2)cc1 gave an absorption maximum (in C1CCOC1) of 321 nm.
Work on Cc1ccc(S(=O)(=O)Nc2c(/C=C/c3ccccc3)sc(-c3ccc(N(C)C)cc3)c2-c2ccsc2)cc1 yielded an absorption maximum (in CC#N) of 465 nm.
CCN(CC)c1ccc2cc(/C=C(\C#N)c3nc4ccccc4o3)c(=O)oc2c1 showed an absorption maximum (in C1COCCO1) of 497 nm, an absorption maximum (in CC#N) of 510 nm and an absorption maximum (in CCO) of 516 nm. The absorption maximum (in CCOC(C)=O) was 506 nm, the absorption maximum (in CN(C)C=O) was 529 nm and the absorption maximum (in CO) was 509 nm. For the same compound, the absorption maximum (in CS(C)=O) was 519 nm, the absorption maximum (in Cc1ccccc1) was 500 nm and the absorption maximum (in ClCCl) was 511 nm.
COc1c(/C=N/Nc2ccc(C#N)cc2)ccc2ccccc12 gave an absorption maximum (in CC#N) of 380 nm, an absorption maximum (in CCCCCC) of 387 nm and an absorption maximum (in CO) of 382 nm. For the same compound, the absorption maximum (in CS(C)=O) was 392 nm and the absorption maximum (in ClC(Cl)Cl) was 385 nm.
CCCCn1c2ccccc2c2ccc(C#Cc3ccc4ccc5cccc6ccc3c4c56)cc21 gave an absorption maximum (in ClCCl) of 404 nm.
O=C1/C(=C2\Sc3ccc(S(=O)(=O)O)cc3C2=O)Sc2ccc(S(=O)(=O)O)cc21 showed an absorption maximum (in C1COCCO1) of 530 nm, an absorption maximum (in CN(C)C=O) of 551 nm and an absorption maximum (in CO) of 553 nm. For the same compound, the absorption maximum (in CS(C)=O) was 553 nm and the absorption maximum (in O) was 546 nm.
FC(F)(F)c1ccc(-c2c3cccc4c5cccc6c(-c7ccc(C(F)(F)F)cc7)c7cccc8c9cccc2c9c(c34)c(c65)c78)cc1 showed an absorption maximum (in Cc1ccccc1) of 683 nm.
With F[B-]1(F)n2c(cc3c4ccccc4oc32)C(c2ccccc2)=C2C=c3c(oc4ccccc34)=[N+]21 the absorption maximum (in C1CCCCC1) was 586 nm, the absorption maximum (in CCOC(C)=O) was 581 nm and the absorption maximum (in CO) was 579 nm.
CC(C)(C)c1cc2ccc3cc(C(C)(C)C)cc4c3c2c(c1)c(=O)n1c4nc2c3cc(C(C)(C)C)cc4ccc5cc(C(C)(C)C)cc(c5c43)c21 gave an absorption maximum (in C1CCOC1) of 395 nm, an absorption maximum (in CC#N) of 394 nm and an absorption maximum (in CC(C)=O) of 395 nm. The absorption maximum (in CCCCCC) was 399 nm, the absorption maximum (in CCO) was 395 nm and the absorption maximum (in CCOC(C)=O) was 393 nm. The absorption maximum (in CO) was 382 nm, the absorption maximum (in CS(C)=O) was 394 nm and the absorption maximum (in Cc1ccc(C)cc1) was 396 nm. The absorption maximum (in ClC(Cl)(Cl)Cl) was 401 nm, the absorption maximum (in ClC(Cl)Cl) was 401 nm and the absorption maximum (in c1ccccc1) was 395 nm.
For C(=C\c1ccccn1)/c1ccc(N(c2ccc(/C=C/c3ccccn3)cc2)c2ccc(-c3nc4ccccc4nc3-c3ccc(N(c4ccc(/C=C/c5ccccn5)cc4)c4ccc(/C=C/c5ccccn5)cc4)cc3)cc2)cc1, the absorption maximum (in C1CCOC1) was 383 nm and the absorption maximum (in Cc1ccccc1) was 378 nm.
For Cc1cnc(NC(=O)C2=C(O)c3ccccc3S(=O)(=O)N2C)s1, the absorption maximum (in C1COCCO1) was 342 nm, the absorption maximum (in CC#N) was 340 nm and the absorption maximum (in CCCCO) was 350 nm. The absorption maximum (in CCCO) was 350 nm, the absorption maximum (in CCO) was 349 nm and the absorption maximum (in CCOC(C)=O) was 343 nm. The absorption maximum (in CO) was 346 nm.
With COc1ccc(/C=C/c2ccc(-c3nnc(-c4ccc(-c5cc6ccccc6s5)cc4)o3)cc2)cc1 the absorption maximum (in CC#N) was 337 nm, the absorption maximum (in CC(C)=O) was 341 nm and the absorption maximum (in CCCCCCCC) was 337 nm. The absorption maximum (in CCCCCCCCCCO) was 346 nm, the absorption maximum (in CCCCCCCCO) was 347 nm and the absorption maximum (in CCCCCO) was 346 nm. It also gave an absorption maximum (in CCCO) of 345 nm, an absorption maximum (in CN(C)C=O) of 351 nm and an absorption maximum (in CO) of 345 nm. For the same compound, the absorption maximum (in CS(C)=O) was 348 nm.
In the case of CCOC(=O)c1c(-c2c(Cl)c3ccccc3oc2=O)nn(-c2cccc(C)c2)c1C(=O)OCC, the absorption maximum (in ClCCl) is reported as 321 nm.
Compound CCCC1=Cc2nc1ccc1[nH]c(cc1CCC)c1nc(c(OC(C)=O)cc3[nH]c2cc3CCC)C(CCC)=C1 has an absorption maximum (in Cc1ccccc1) of 645 nm.
With Cc1cc(C)c(B(c2ccc3c(c2)c2cc(B(c4c(C)cc(C)cc4C)c4c(C)cc(C)cc4C)ccc2n3-c2ccc(C(=C(c3ccccc3)c3ccccc3)c3ccccc3)cc2)c2c(C)cc(C)cc2C)c(C)c1 the absorption maximum (in C1CCOC1) was 358 nm.
O=c1oc2ccccc2cc1-c1ccc(-c2ccc(-c3cc4ccccc4oc3=O)cc2)cc1 showed an absorption maximum (in ClCCl) of 341 nm.
For COC(=O)c1cc(=O)n(C)c2cc(-c3ccc4c(c3)OCCO4)sc12, the absorption maximum (in CC#N) was 398 nm and the absorption maximum (in ClCCl) was 402 nm.
For CCCCN(CCCC)c1ccc(C#Cc2cc(C#Cc3ccc(N(CCCC)CCCC)cc3)c(C#Cc3ccc([N+](=O)[O-])cc3)cc2C#Cc2ccc([N+](=O)[O-])cc2)cc1, the absorption maximum (in ClCCl) was 426 nm.
Work on c1cc2ccc3[nH]c4ccc5cccc6c(c1)c2c3c4c56 yielded an absorption maximum (in ClC(Cl)Cl) of 425 nm.
Compound Cc1ccc(-c2ccc(-c3ccc(-c4ccc(-c5ccc(C)cc5)cc4)c(/C(=C(/c4ccccc4)c4cc(-c5ccc(-c6ccc(C)cc6)cc5)ccc4-c4ccc(-c5ccc(C)cc5)cc4)c4ccccc4)c3)cc2)cc1 has an absorption maximum (in C1CCOC1) of 308 nm.
CCOC(=O)COc1ccc(/C=C/C2=C3c4ccccc4C(c4ccc[nH]4)=[N+]3[B-](F)(F)n3ccc(C)c32)cc1 gave an absorption maximum (in C1CCOC1) of 586 nm, an absorption maximum (in CC#N) of 577 nm and an absorption maximum (in CCCCCC) of 587 nm. For the same compound, the absorption maximum (in CO) was 580 nm, the absorption maximum (in Cc1ccccc1) was 592 nm and the absorption maximum (in ClCCl) was 585 nm.
In the case of Cc1cc2c(ccc3c[n+](C)c(C)cc32)c[n+]1C, the absorption maximum (in CC#N) is reported as 400 nm.
O=P1(c2ccccc2)c2cc(N3c4ccccc4Oc4ccccc43)ccc2-c2ccc(N3c4ccccc4Oc4ccccc43)cc21 showed an absorption maximum (in Cc1ccccc1) of 418 nm.
Work on CC(C)c1cc(C(C)C)c(B2c3ccccc3Oc3cc(N4c5ccccc5C(C)(C)c5ccccc54)ccc32)c(C(C)C)c1 yielded an absorption maximum (in Cc1ccccc1) of 436 nm.
In the case of Cc1ccc2c(c1)c1cc(Br)ccc1n2-c1c(C#N)c(-n2c3ccc(Br)cc3c3cc(Br)ccc32)c(-n2c3ccc(Br)cc3c3cc(Br)ccc32)c(C#N)c1-n1c2ccc(Br)cc2c2cc(Br)ccc21, the absorption maximum (in Cc1ccccc1) is reported as 339 nm.
